The values that follow come from patent US20260022098A1, “BULLEYACONITINE A DERIVATIVE WITH ANALGESIC ACTIVITY, AND PREPARATION METHOD AND APPLICATION THEREOF” (priority 2023, published 2026).

Where two headings read alike, the source gives them in different places.

Data set [1] concerns Kunming mice. Put plainly: Analgesic activity by acetic acid-induced writhing method (writhing inhibition rate, ED50). The class given is in vivo. To be noted: mice, subcutaneous; for ED50: Probit regression; for inhibition in vivo at 0.05 mg/kg / inhibition in vivo at 0.5 mg/kg: read-out: Analgesia rate (%) ± SEM. A digest of the protocol: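 Kunming mice (22±2 g, 1:1 sex, 12 h fasted, 10/group) got compound s.c. (dissolved 1:1 molar with 0.1 mol/L HCl, diluted in saline); 0.7% acetic acid i.p. 15 min later, writhes counted over 15 min. Inhibition rate vs saline blank; ED50 by Probit regression over ≥5 doses.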
Background: An intraperitoneal irritant provokes the stretching counted in writhing tests.

Data set [2] in a line: Acute toxicity / median lethal dose (LD50) determination, subcutaneous injection. The class given is in vivo, mice. Also on record: key to Acute toxicity: if death occurred, (+) represented as positive; if no death occurred, (−) represented as negative. Particulars: both sexes, Kunming, mouse, in vivo, sc; mice, subcutaneous, survival within 24 h, Probit regression; >X = no death or toxic symptoms at X mg/kg. An outline of the steps:
(§1)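 Kunming mice (22±2 g, 1:1 male:female, fasted 12 h), 10 per group, given compound subcutaneously at 0.1 mL/10 g in saline after 1:1 molar dissolution in 0.1 mol/L HCl. At least 5 proportional dose groups set from a 20 mg/kg pilot; 24 h survival, LD50 by Probit regression.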

Data set [3] has as its system Kunming mice. The data set is described as above. The class given is in vivo. Also on record: key to Acute toxicity: if death occurred, (+) represented as positive; if no death occurred, (−) represented as negative. Particulars: for Acute toxicity: mice administered 20 mg/kg subcutaneously, presence of death within 24 h. An outline of the steps: as §1
The test system of data set [4] is Kunming mice. Briefly: Calculation of therapeutic index (TI = LD50/ED50). The data set is classed as in vivo. How it is done:
(3) Calculation of Therapeutic Index (TI)
The therapeutic index of each compound was calculated based on the median effective dose and the median lethal dose, which were specifically as follows: therapeutic index (TI)=median lethal dose (LD50)/median effective dose (ED50).

The test system of a further data set is RAW 264.7 cells. Put plainly: MTT assay, viability of RAW 264.7 cells. The data set is classed as cell-based. Particulars: compound diluted to 30 mol/L (so in the source), 12 h. How it is done:
(§2) The effect of the compound to be tested on viability of RAW 264.7 cells at a concentration of […] was assessed through MTT assay (Methylthiazolyldiphenyl-tetrazolium bromide assay), and the inhibition on NO release in the inflammatory response of LPS-induced RAW 264.7 cells at 30 µM was determined through Griess method. Specific methods were described as follows.
An MTT solution (5 mg/mL) was prepared with a PBS buffer, filter-sterilized through a 0.22 μm filter membrane, and stored protected from light at low temperature. Each compound was dissolved in DMSO to prepare a 50 mmol/L stock solution, and stored from light at low (frozen) temperature. The stock solution was diluted to 30 mol/L with DMEM (Dulbecco's modified Eagle's medium) containing 10% FBS (fetal bovine serum). RAW264.7 cells beyond third passage were added to a culture medium and gently pipetted to detach, forming a cell suspension. 10 μL of the cell suspension was applied onto a hemocytometer slide for counting, and cells were seeded into 96-well plates at a density of 6×10^3 cells per well with 100 μL of the cell suspension per well. After incubated at 37° C. with 5% CO2 for 24 h, supernatant was removed. A zero-adjustment group (CO group) received 100 μL of medium per well, the blank group (CK group) received 100 μL of DMSO (1/1000 dilution) per well, and the experimental groups received 100 μL of the test samples per well. After 12 h, supernatant was removed, and […] of MTT solution was added into each well at 120 μL per well. After incubated in COz at a constant temperature for 4 h, supernatant was removed, and DMSO was added into each well by 150 μL per well. The mixture was shaken at 50 r/min for 10 min and subjected to an absorbance test at 492 nm. Relative cell viability (x) was calculated through a formula as follows: relative cell viability (%)=(ODTest−ODCO)/(ODCK−ODCO)×100%.
For orientation: Tetrazolium assays rely on reduction of a dye to a coloured formazan, in cell work by metabolically active cells.

In data set [5] the test system is LPS-induced RAW 264.7 cells. Put plainly: Griess assay, inhibition of NO release in LPS-induced RAW 264.7 cells. The data set is classed as cell-based. Particulars: Griess method, compound at 30 M (so in the source), 22 h. How it is done:
as §2
RAW264.7 cells beyond third passage were added to a culture medium and gently pipetted to detach, forming a cell suspension. 10 μL of the cell suspension was applied onto a hemocytometer slide for counting, and cells were seeded into a 96-well plate at a density of 3×10^4 cells per well with 100 μL of the cell suspension per well. After incubated at 37° C. with […] for 24 h, supernatant was removed. The blank group received 100 μL of DMSO (1/1000 dilution) per well, a LPS (lipopolysaccharide) group received 100 μL of DMSO (1/1000 dilution) per well, and the experimental groups received 100 μL of the test samples per well. The LPS group received 1 μg/ml of LPS by […] per well, and the experimental groups received […] of LPS by 3 μg per well. After 22 h, 50 μL of supernatant was transferred into another 96-well plate, added with Griess Reagent I in a NO assay kit by 50 μL per well, then added with Griess Reagent II by 50 μL per well, and subjected to an absorbance test at 562 nm. Nitric oxide (NO) concentration was calculated based on a standard curve, which was specifically as follows: NO inhibition rate (%)=(ODLPS−ODTest)/(ODLPS−ODBlank)×100).
On the technique in general: Griess reagent forms a coloured azo dye with nitrite.

Data set [6] has as its system Kunming mice. To be noted: reported value used as preliminary screening concentration; cited from earlier work.
[7] abbreviates: Mus musculus, sc, acetic acid-induced writhing, read-out: ED50.
[8] abbreviates: Mus musculus, sc, dosing concentration 0.05 mg/kg, acetic acid-induced writhing.
Where [9] appears, read: Mus musculus, sc, dosing concentration 0.5 mg/kg, acetic acid-induced writhing.

The term ED50 denotes the dose at which the effect has come halfway, by size or by number of responders. What is called LD50 is the dose expected to kill half of the subjects tested. Turning to `CCO[C@]12C[C@H](OC)[C@@]3(OC(=O)c4ccccc4F)CC(C1[C@H]3OC(=O)c1ccccc1F)[C@]13C4[C@@H](OC)C2[C@H]1N(CC)C[C@]4(COC)CC[C@@H]3OC` (stereo partly shown) [Compound 69], the ED50 in the data set on Kunming mice [1] (setting [7]) worked out at 0.106 mg/kg. For the same compound, in the data set with Kunming mice [1] (setting [8]), the inhibition in vivo at 0.05 mg/kg stood at 40.3 ± 0.7%. In addition, in the data set with Kunming mice [1] (setting [9]), the inhibition in vivo at 0.5 mg/kg is 60.6 ± 1.9%. In data set [2], this compound came in with an LD50 greater than 100 mg/kg. The Acute toxicity entry in the data set with Kunming mice [3] was “−”. For the same compound, the TI in the data set on Kunming mice [4] is reported as greater than 943.4. In addition, the RAW cell viability in the data set with RAW 264.7 cells was determined as 95.11 ± 5.66 ns %. For the same compound, the “Inflammatory NO inhibition rate” value in data set [5] worked out at 40 ± 3.46 %.
As for `CCO[C@]12C[C@H](OC)[C@@]3(OC(=O)c4ccc(Cl)cc4)CC(C1[C@H]3OC(=O)c1ccc(OC)cc1)[C@]13C4[C@@H](OC)C2[C@H]1N(CC)C[C@]4(COC)CC[C@@H]3OC` (stereo partly shown) [Compound 83], the ED50 in the data set on Kunming mice [1] (setting [7]) amounted to 0.146 mg/kg. For the same compound, the inhibition in vivo at 0.05 mg/kg in the data set with Kunming mice [1] (setting [8]) came to 47 ± 0.9%. In addition, the inhibition in vivo at 0.5 mg/kg in the data set with Kunming mice [1] (setting [9]) is 70.8 ± 1.2%. In data set [2], this compound came in with a 50% lethal dose (LD50) of 76.6 mg/kg. Besides, the Acute toxicity result in the data set with Kunming mice [3] is “−”. Moreover, the TI in the data set with Kunming mice [4] is 524.9. For the same compound, the RAW cell viability in the data set with RAW 264.7 cells was 85.21 ± 7.83 ^ %. Further, the “Inflammatory NO inhibition rate” value in data set [5] came out at 50 ± 4.52 %.
For Bulleyaconitine A [reference compound], the ED50 in the data set with Kunming mice [1] (acetic acid-induced writhing) is 0.048 mg/kg. In addition, in the data set with Kunming mice [1] (dosing concentration 0.05 mg/kg, acetic acid-induced writhing), the “Analgesia rate (%) ± SEM” value came out at 54.80 ± 1.8 %. Moreover, the “Analgesia rate: unable to test owing to significant toxicity or death in mice” value with Kunming mice [1] (dosing concentration 0.5 mg/kg) is recorded as “−^a”. The Acute toxicity entry in the data set on Kunming mice [3] is “+”. This compound also returned an LD50 with Kunming mice [3] (mice, subcutaneous, survival within 24 h, Probit regression, >X = no death or toxic symptoms at X mg/kg) of 0.92 mg/kg. Moreover, the TI in the data set with Kunming mice [4] is 19.2. The RAW cell viability with RAW 264.7 cells is 85.80 ± 7.31 ^ %. In addition, in data set [5], the “Inflammatory NO inhibition rate” value stood at 13 ± 6.84 %. Also, in the data set on Kunming mice [6], the “reported median effective dose (ED50)” value is 0.05 mg/kg.
